These results are taken from patent US20050118658A1, “Use of ERRalpha phosphorylation status as a breast cancer biomarker” (priority 2003, published 2005).

One assay deals with ERRα. Kind of assay: Immunoblot analysis of ERRα expression in ERRα-transfected BT-474 cells. It counts as cell-based, human. The following applies: BT-474 cells transfected with ERRα, 48 h; 20 μg/ml trastuzumab, 1 μM gefitinib, 20 μM U0126 or 20 μM LY294002. As to the method:
(§1) BT-474 cells were co-transfected in parallel with the ERE(5x)-regulated and TATA dual-luciferase reporter gene sets along with the indicated expression plasmids. […] In panel (B), the cells were incubated for 48 h in estrogen-free medium supplemented with dimethyl sulfoxide as the drug vehicle control, 20 μM U0126 (MEK inhibitor), or 20 μM LY294002 (PI3K inhibitor) as indicated. After incubation for 48 h, the cells were harvested for dual-luciferase assays. Data were analyzed as described in the legend to FIG. 2. (C) Immunoblot analysis of protein extracts (20 μg per sample) prepared from BT-474 cells treated as in panels A and B above for luciferase activity. The membrane was probed with antibodies that react specifically with ERRα. Reactive proteins were visualized by enhanced chemiluminescence and autoradiography. (D) Immunoblot analysis as in panel C above, only the membrane was probed with antibodies that react specifically with phosphorylated Akt (p-Akt), total Akt, phosphorylated MAPK (p-MAPK) or total MAPK.
(§2) Proteins were extracted in Cell Lysis Buffer (Cell Signaling Technology, Beverly, Mass.) supplemented with Protease Inhibitor Cocktail Set III and Phosphatase Inhibitor Cocktail Set II (Calbiochem). Protein amounts were quantified with Coomassie Protein Assay Reagent (Pierce Biotechnology) with BSA as the standard. […] In FIG. 5D, the membrane was probed sequentially with p44/42 MAPK polyclonal antibody, phospho-specific p44/42 MAPK (Thr202/Tyr204) monoclonal antibody E10, Akt polyclonal antibody, and phospho-specific Akt (Ser473) polyclonal antibody (Cell Signaling Technology). Reacting material was detected using horseradish peroxidase-conjugated secondary antibodies (Jackson ImmunoResearch Laboratories, West Grove, Pa.) together with enhanced chemiluminescence (Amersham Pharmacia) and autoradiography.
On the technique in general: Immunoblotting shows a protein as a band on a membrane.

Assay [1] concerns phosphorylated MAPK (p-MAPK). Briefly: Immunoblot analysis of phosphorylated versus total MAPK in BT-474 cells. In kind it is cell-based, human. Particulars: 48 h, 20 μg/ml trastuzumab, 1 μM gefitinib, 20 μM U0126 or 20 μM LY294002. The procedure:
as §1, §2

Assay [2] relates to phosphorylated Akt (p-Akt). Kind of assay: Immunoblot analysis of phosphorylated versus total Akt in BT-474 cells. It counts as cell-based, human. The following applies: 48 h, 20 μg/ml trastuzumab, 1 μM gefitinib, 20 μM U0126 or 20 μM LY294002. As to the method:
as §1, §2

In the next assay the test system is BT-474 cells. The following applies: literature statement; cited from earlier work.
Assay [3] deals with MCF-7 cells. Particulars: literature statement; cited from earlier work.
The subject of assay [4] is MCF-7 cells. Kind of assay: 7 day growth assay, DNA content per well, MCF-7 cells. The following applies: 1I M gefitinib, 7 days.
Procedure: Using 12-well plates, MCF-7 and BT-474 cells were seeded at 15,000 and 30,000 cells per well. Cells were cultured for 7 days in the presence of the indicated test agents with media changes at day 0, day 2 and day 5. Following the 7 day treatment course, cells were assayed for DNA content per well. The results shown represent the mean ± SEM of three replicate wells.
MCF-7 and BT-474 cells were seeded in 12-well plates at 15,000 and 30,000 cells per well, respectively. Cells were allowed to grow in the presence of the test agents for a total of 7 days, after which, they were harvested for measurement of DNA content per well using a fluorescent DNA quantification kit (Bio-Rad, Hercules, Calif.). Day 0 was considered to be 24 h after the cells were seeded, when the medium was initially replaced with fresh medium containing the test agents. The cell culture medium was again exchanged with fresh medium containing the appropriate test agents on days 2 and 5. […] The effects on cellular proliferation of the test agents are shown as the percentage of DNA amount per well relative to the control treated cells.

Consider `COc1cc2ncnc(Nc3ccc(F)c(Cl)c3)c2cc1OCCCN1CCOCC1` [gefitinib], for which the “ERRα expression (immunoblot)” value in the assay on ERRα is “expression was maintained”. In assay [1], the “phosphorylation of MAPK / MEK/MAPK pathway activation (immunoblot)” value was “inhibited activation of the MEK/MAPK and PI3K/Akt signaling pathways”. The “phosphorylation of Akt / PI3K/Akt pathway activation (immunoblot)” value in assay [2] is “inhibited activation of the MEK/MAPK and PI3K/Akt signaling pathways”. Further, the “effect on growth of BT-474 cells (known, ref. 26)” value with BT-474 cells was “significantly inhibit the growth”. Also, in the assay on MCF-7 cells [3], the “effect on growth of MCF-7 cells (known, ref. 35)” value is “affect only minimally the growth”. Also, in the assay with MCF-7 cells [4], the “effect on growth of MCF-7 cells” value is listed as “did not significantly affect the growth”.
